In patent publication US20250186463A1, “ABIRATERONE DECANOATE PRODRUGS AND USE IN THERAPY” (PROPELLA THERAPEUTICS, INC., priority 2022, published 2025):
Marks after values point to notes of the source that are not given here.

What was measured:
[1] = test system: serum progesterone; test: Phase 1/2a study: serum progesterone; format: in vivo, human
Description: This is a Phase 1/2a, Open-label, Multicenter Study of Intramuscular Abiraterone Decanoate Depot in Patients with Advanced Prostate Cancer.
(§1) Formulations and dosing regimen: The formulation used in the study (abiraterone decanoate for intramuscular [i.m.] injection) is a solution formulation of abiraterone decanoate at a concentration of 180 mg/mL and will be provided as a 10 mL vial containing 990 mg of abiraterone decanoate in 5.5 mL of solution. See further details of the formulations in Example 2 (for each milliliter: Abiraterone Decanoate, about 180 mg/mL; Benzyl Alcohol, about 100 mg/mL; Benzyl Benzoate, about 200 mg/mL; and Corn oil, q.s. to 1 mL). Abiraterone Decanoate will be administered as an i.m. injection every 84 days (±3 days). Dose escalation will proceed with a modified Fibonacci sequence. Based on emerging data, intermediate doses may be evaluated.
Study Design: This is a Phase 1/2a, Open-label, Multicenter Study of Intramuscular Abiraterone Decanoate Depot in Patients with Advanced Prostate Cancer. In Phase 1, all patients will receive i.m. Abiraterone Decanoate depot in 84-day treatment cycles combined with daily oral prednisone or dexamethasone. In Phase 2a, patients will be randomized 1:1 and treated with i.m. Abiraterone Decanoate depot in 84-day treatment cycles in combination with dexamethasone (Arm A) or abiraterone acetate daily+prednisone (Arm B). In both Phases, patients will undergo scheduled periodic assessments of serum testosterone levels. Participants may continue treatment until they meet any discontinuation criteria outlined in the protocol.
Pharmacodynamic Analysis: Determination of Prostate Specific Antigen (PSA), serum testosterone, dehydroepiandrosterone (DHEA), dehydroepiandrosterone sulfate (DHEA-S), androstenedione, dihydrotestosterone (DHT), progesterone, cortisol, adrenocorticotropic hormone (ACTH), corticosterone, 11-dexoycorticosterone (11-DOC) and 11-deoxycortisol.
Based on the available data, the recommended dose for Phase 2 is about 1260 mg abiraterone decanoate once every three months (12 weeks). All cohorts 1 and 2 in this clinical study were treated with prednisone, 5 mg orally once or twice daily; and all cohorts 3-5 were treated with dexamethasone, 0.5 mg orally once daily. The results shown herein for these cohorts should be understood accordingly.
See also Table 3B below. […] See also FIG. 11B for the absolute serum progesterone levels for cohorts 4 and 5, with the LLOQ being 1.59 nM. It should be noted that the maximum serum progesterone level observed for cohorts 1-3 is 2.5 nM. FIGS. 3F and 3G show the serum 11-deoxycorticosterone and corticosterone response in cohorts 3, 4, and 5, the trend is similar to that observed for progesterone levels above. See a summary shown in the Table 3C below for the first cycle.

[2] = Phase 1/2a study: plasma pharmacokinetics; format: in vivo, human; details: cohort 3 (720 mg), patient 08-1301, all values
Description: as §1
Pharmacokinetic results: the partial results from pharmacokinetic analysis for cohorts 1, 2, 3, 4, and 5 (180 mg, 360 mg, 720 mg, 1260 mg, and 1800 mg abiraterone decanoate, respectively) are shown in FIGS. 4A-4E. […] And for abiraterone decanoate, minimal increase in AbiDec for 08-1301 was observed which declined to 0 ng/ml thereafter.

## CCCCCCCCCC(=O)O[C@H]1CC[C@@]2(C)C(=CC[C@@H]3[C@@H]2CC[C@]2(C)C(c4cccnc4)=CC[C@@H]32)C1 [abiraterone decanoate]
[1]; 720 mg (N = 4), Day 14
  Progesterone Changes during cycle 1, Percent (%): −1%
[1]; 720 mg (N = 4), Day 28
  Progesterone Changes during cycle 1, Percent (%): −2%
[1]; 720 mg (N = 4), Day 56
  Progesterone Changes during cycle 1, Percent (%): 0%
[1]; 720 mg (N = 4), Day 84
  Progesterone Changes during cycle 1, Percent (%): 0%
[1]; 1,260 mg (N = 6), Day 14
  Progesterone Changes during cycle 1, Percent (%): 20%
[1]; 1,260 mg (N = 6), Day 28
  Progesterone Changes during cycle 1, Percent (%): 35%
[1]; 1,260 mg (N = 6), Day 56
  Progesterone Changes during cycle 1, Percent (%): 0%
[1]; 1,260 mg (N = 6), Day 84
  Progesterone Changes during cycle 1, Percent (%): 0%
[1]; 1,800 mg (N = 8), Day 14
  Progesterone Changes during cycle 1, Percent (%): 165%
[1]; 1,800 mg (N = 8), Day 28
  Progesterone Changes during cycle 1, Percent (%): 86%
[1]; 1,800 mg (N = 8), Day 56
  Progesterone Changes during cycle 1, Percent (%): 12%
[1]; 1,800 mg (N = 8), Day 84
  Progesterone Changes during cycle 1, Percent (%): 13%
[1]; Cohort 1, 180 mg i.m., Study Day 1 (baseline)
  Serum Progesterone (% CFB): 0%
[1]; Cohort 1, 180 mg i.m., Study Day 14
  Serum Progesterone (% CFB): 0%
[1]; Cohort 1, 180 mg i.m., Study Day 28
  Serum Progesterone (% CFB): 8%
[1]; Cohort 1, 180 mg i.m., Study Day 56
  Serum Progesterone (% CFB): 0%
[1]; Cohort 1, 180 mg i.m., Study Day 70
  Serum Progesterone (% CFB): 0%
[1]; Cohort 2, 360 mg i.m., Study Day 1 (baseline)
  Serum Progesterone (% CFB): 0%
[1]; Cohort 2, 360 mg i.m., Study Day 14
  Serum Progesterone (% CFB): 37%
[1]; Cohort 2, 360 mg i.m., Study Day 28
  Serum Progesterone (% CFB): 8%
[1]; Cohort 2, 360 mg i.m., Study Day 56
  Serum Progesterone (% CFB): 0%
[1]; Cohort 2, 360 mg i.m., Study Day 84
  Serum Progesterone (% CFB): 0%
[1]; Cohort 2, 360 mg i.m., Study Day 168
  Serum Progesterone (% CFB): 0%
[1]; Cohort 2, 360 mg i.m., Study Day 252
  Serum Progesterone (% CFB): 0%
[1]; Cohort 3, 720 mg i.m., Study Day 1 (baseline)
  Serum Progesterone (% CFB): 0%
[1]; Cohort 3, 720 mg i.m., Study Day 14
  Serum Progesterone (% CFB): −1%
[1]; Cohort 3, 720 mg i.m., Study Day 28
  Serum Progesterone (% CFB): −2%
[1]; Cohort 3, 720 mg i.m., Study Day 56
  Serum Progesterone (% CFB): 0%
[1]; Cohort 3, 720 mg i.m., Study Day 84
  Serum Progesterone (% CFB): 0%
[1]; Cohort 3, 720 mg i.m., Study Day 168
  Serum Progesterone (% CFB): 6%
[1]; Cohort 3, 720 mg i.m., Study Day 224
  Serum Progesterone (% CFB): 0%
[1]; Cohort 3, 720 mg i.m., Study Day 252
  Serum Progesterone (% CFB): 0%
[1]; Cohort 4, 1260 mg i.m., Study Day 1 (baseline)
  Serum Progesterone (% CFB): 0%
[1]; Cohort 4, 1260 mg i.m., Study Day 14
  Serum Progesterone (% CFB): 20%
[1]; Cohort 4, 1260 mg i.m., Study Day 28
  Serum Progesterone (% CFB): 35%
[1]; Cohort 4, 1260 mg i.m., Study Day 42
  Serum Progesterone (% CFB): 0%
[1]; Cohort 4, 1260 mg i.m., Study Day 56
  Serum Progesterone (% CFB): 0%
[1]; Cohort 4, 1260 mg i.m., Study Day 70
  Serum Progesterone (% CFB): 22%
[1]; Cohort 4, 1260 mg i.m., Study Day 84
  Serum Progesterone (% CFB): 0%
[1]; Cohort 4, 1260 mg i.m., Study Day 112
  Serum Progesterone (% CFB): 6%
[1]; Cohort 4, 1260 mg i.m., Study Day 140
  Serum Progesterone (% CFB): 0%
[1]; Cohort 4, 1260 mg i.m., Study Day 168
  Serum Progesterone (% CFB): 1%
[1]; Cohort 4, 1260 mg i.m., Study Day 224
  Serum Progesterone (% CFB): 0%
[1]; Cohort 4, 1260 mg i.m., Study Day 252
  Serum Progesterone (% CFB): 0%
[1]; Cohort 5, 1800 mg i.m., Study Day 1 (baseline)
  Serum Progesterone (% CFB): 0%
[1]; Cohort 5, 1800 mg i.m., Study Day 14
  Serum Progesterone (% CFB): 165%
[1]; Cohort 5, 1800 mg i.m., Study Day 28
  Serum Progesterone (% CFB): 86%
[1]; Cohort 5, 1800 mg i.m., Study Day 42
  Serum Progesterone (% CFB): 0%
[1]; Cohort 5, 1800 mg i.m., Study Day 56
  Serum Progesterone (% CFB): 12%
[1]; Cohort 5, 1800 mg i.m., Study Day 70
  Serum Progesterone (% CFB): 0%
[1]; Cohort 5, 1800 mg i.m., Study Day 84
  Serum Progesterone (% CFB): 8%
[1]; Cohort 5, 1800 mg i.m., Study Day 140
  Serum Progesterone (% CFB): 0%
[1]; Cohort 5, 1800 mg i.m., Study Day 168
  Serum Progesterone (% CFB): −7%
[1]; Cohort 5, 1800 mg i.m., Study Day 196
  Serum Progesterone (% CFB): 52%
[1]; Cohort 5, 1800 mg i.m., Study Day 224
  Serum Progesterone (% CFB): −7%
[1]; Cohort 5, 1800 mg i.m., Study Day 252
  Serum Progesterone (% CFB): 0%
[1]; Patient 1, cohort 1, 180 mg, FIG. 5
  progesterone change from baseline: no progesterone increase from baseline
[1]; Patient 2, cohort 2, 360 mg, FIG. 6
  transient up stream steroid (progesterone) increase from baseline: returned to baseline
[1]; all cohorts
  increases of progesterone levels during the second cycle: no significant increases
[1]; all cohorts (180-1800 mg)
  progesterone changes from baseline: not significant
[1]; cohort 5 (1800 mg), after first administration
  time at which progesterone level returned to baseline: ~6 week
[1]; cohorts 1-3 (180, 360, 720 mg)
  maximum serum progesterone level observed: 2.5 nM
[1]; patient 02-1403, Cohort 4, 1260 mg, mCRPC, Visit C4D28, assay LLOQ = 1.59 nM
  Progesterone at Visit Day (nM): <LLOQ
[1]; patient 02-1405, Cohort 4, 1260 mg, mCRPC, Visit C1D56, assay LLOQ = 1.59 nM
  Progesterone at Visit Day (nM): <LLOQ
[1]; patient 02-1504, Cohort 5, 1800 mg, mCRPC, Visit C1D28, assay LLOQ = 1.59 nM
  Progesterone at Visit Day (nM): <LLOQ
[1]; patient 04-1406, Cohort 4, 1260 mg, mCSPC, Visit C1D56, average of Day 28 and Day 70 values
  Progesterone at Visit Day (nM): 2.90† nM
[1]; patient 04-1503, Cohort 5, 1800 mg, mCSPC, Visit C1D84, assay LLOQ = 1.59 nM
  Progesterone at Visit Day: 2.54 nM
[1]; patient 04-1506, Cohort 5, 1800 mg, mCRPC, Visit C1D28, assay LLOQ = 1.59 nM
  Progesterone at Visit Day (nM): <LLOQ
[1]; patient 06-1401, Cohort 4, 1260 mg, mCRPC, Visit C3D84, assay LLOQ = 1.59 nM
  Progesterone at Visit Day (nM): <LLOQ
[1]; patient 06-1402, Cohort 4, 1260 mg, mCRPC, Visit C4D28, assay LLOQ = 1.59 nM
  Progesterone at Visit Day (nM): <LLOQ
[1]; patient 06-1404, Cohort 4, 1260 mg, mCSPC, Visit C2D84, assay LLOQ = 1.59 nM
  Progesterone at Visit Day (nM): <LLOQ
[1]; patient 06-1501, Cohort 5, 1800 mg, mCRPC, Visit C1D84, assay LLOQ = 1.59 nM
  Progesterone at Visit Day (nM): <LLOQ
[1]; patient 06-1502, Cohort 5, 1800 mg, mCSPC, Visit C2D84, assay LLOQ = 1.59 nM
  Progesterone at Visit Day (nM): <LLOQ
[2]
  plasma abiraterone values: below the LLOQ
